Values of other authors in patent publication US20080096972A1, “COMPOUND FORMULATIONS OF 2-AMINO-1, 3-PROPANEDIOL COMPOUNDS” (priority 2004, published 2008).

Details: shortly after preparation or upon storage

## CCCCCCCCc1ccc(CCC(N)(CO)CO)cc1 [2-amino-2-[2-(4-octylphenyl)ethyl]-propane-1,3-diol]
  crystalline deposits in aqueous solutions: crystalline deposits of this compound have been observed
